# What was measured:
# [1] = target: Cannabinoid receptor 1 (Homo sapiens, UniProt P21554); assay: Displacement of [3H]CP-55-940 from human recombinant CB1 receptor in COS cells; format: cell-based
# [2] = target: Cannabinoid receptor 2 (Homo sapiens, UniProt P34972); assay: Displacement of [3H]CP-55-940 from human recombinant CB2 receptor in COS cells; format: cell-based
# Chain of Cannabinoid receptor 2 (P34972 whole entry): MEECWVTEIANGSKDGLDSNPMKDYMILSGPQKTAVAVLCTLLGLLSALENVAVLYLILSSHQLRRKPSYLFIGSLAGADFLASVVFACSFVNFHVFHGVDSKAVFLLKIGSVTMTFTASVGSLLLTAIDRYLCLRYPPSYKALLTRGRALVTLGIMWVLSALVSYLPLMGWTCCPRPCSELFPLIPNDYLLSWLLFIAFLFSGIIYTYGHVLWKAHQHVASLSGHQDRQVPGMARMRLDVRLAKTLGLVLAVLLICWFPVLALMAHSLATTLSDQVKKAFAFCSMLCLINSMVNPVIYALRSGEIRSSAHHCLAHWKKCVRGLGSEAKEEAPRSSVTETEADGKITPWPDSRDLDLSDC
# Chain of Cannabinoid receptor 1 (P21554 whole entry): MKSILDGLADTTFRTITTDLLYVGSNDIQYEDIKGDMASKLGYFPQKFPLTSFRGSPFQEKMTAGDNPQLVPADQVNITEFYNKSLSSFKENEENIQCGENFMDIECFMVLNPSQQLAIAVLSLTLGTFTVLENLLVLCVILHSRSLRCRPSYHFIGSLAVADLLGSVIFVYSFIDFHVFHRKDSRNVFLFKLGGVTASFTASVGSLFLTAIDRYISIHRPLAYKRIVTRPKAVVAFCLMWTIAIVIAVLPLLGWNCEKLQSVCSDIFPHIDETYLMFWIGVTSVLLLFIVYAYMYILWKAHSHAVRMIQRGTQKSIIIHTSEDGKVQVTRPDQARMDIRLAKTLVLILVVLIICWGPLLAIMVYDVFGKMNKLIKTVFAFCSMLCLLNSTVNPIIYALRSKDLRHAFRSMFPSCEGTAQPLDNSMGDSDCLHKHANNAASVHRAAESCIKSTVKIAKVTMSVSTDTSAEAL
smiles,measurement,setting,value
C[C@H](CO)NC(=O)CCC/C=C\C/C=C\C/C=C\C/C=C\CCOC(=O)c1cc(I)ccc1N=[N+]=[N-],Ki,[1],570 nM
same,Ki,[2],220 nM
